Measured values as given in patent publication US9248088B2, “Compositions and methods for skin conditioning” (TELOMERASE ACTIVATION SCIENCES, INC., priority 2003, dated 2016).
Like-named read-outs stand apart in the source and are kept apart here.

Experiments:
[1] = tested on: telomerase activity in HEKneoP cells (neonatal keratinocytes); assay: TRAP assay of telomerase activity in neonatal keratinocytes; type: cell-based, human; details: for MEC (minimum effective concentration producing telomerase activity twice that of DMSO control): HEKneoP cells, 100% greater than DMSO control; for telomerase activity (result in words): neonatal keratinocytes / normal cells
[2] = tested on: young neonatal keratinocytes; assay: scratch assay (cell reconfluence), young neonatal keratinocytes; type: cell-based, human; details: FIG. 5, 2 at 0.01 μM; for SCtest (percentage of closure): SC=100-[100×Wn/W0]
Protocol: (§1) As used herein, “as measured in a scratch assay” refers to measurement of cell reconfluence in keratinocytes or fibroblasts according to the following protocol, and expressed as the value of SC shown in the formula below. Cells are plated in flasks ((5×10^5 cells per flask) and cultured for two days in a humidified chamber at 5% CO2, 37° C. A 2 ml plastic pipette is gently dragged thought the culture to “scratch” the cell surface. The ideal scratch is approximately 2-3 mm wide and 50 mm long (along the long axis of the tissue culture flask). The cells are retreated with medium containing either vehicle (control sample) or test compositions at multiple dilutions. A scratch area is identified, the flask marked, and the appearance of the cells documented photographically over 3-4 days continued culturing of the cells. Amount of cell reconfluence, or closure of the scratch, is determined by measuring width of the scratch over time for compound-treated samples relative to vehicle-treated or other control cells. […] Percentage of closure is calculated by the following formula: SC=100−[100×Wn/W0], where Wn is the width of the scratch on day n and W0 is the width of the scratch on day one (i.e. immediately after scratching).

[3] = type: in vitro ADME; details: human
Protocol: J. Franz et al., Abst. J Invest Dermatol 94:525, 1990). […] The receptor solution concentration (representing the inner surface of the skin) was then collected at predetermined intervals over 48 hours, to determine extent and rate of appearance of labeled compound.

[4] = tested on: aging adult keratinocytes; assay: scratch assay (cell reconfluence), aging adult keratinocytes; type: cell-based, human; details: for Approx. scratch width (arbitrary units) Day 1 test: 0.1 μg/ml (about 0.13 μM) 1
Protocol: As used herein, “as measured in a scratch assay” refers to measurement of cell reconfluence in keratinocytes or fibroblasts according to the following protocol, and expressed as the value of SC shown in the formula below. Cells are plated in flasks ((5×10^5 cells per flask) and cultured for two days in a humidified chamber at 5% CO2, 37° C. A 2 ml plastic pipette is gently dragged thought the culture to “scratch” the cell surface. The ideal scratch is approximately 2-3 mm wide and 50 mm long (along the long axis of the tissue culture flask). The cells are retreated with medium containing either vehicle (control sample) or test compositions at multiple dilutions. A scratch area is identified, the flask marked, and the appearance of the cells documented photographically over 3-4 days continued culturing of the cells. Amount of cell reconfluence, or closure of the scratch, is determined by measuring width of the scratch over time for compound-treated samples relative to vehicle-treated or other control cells. […] Percentage of closure is calculated by the following formula: SC=100−[100×Wn/W0], where Wn is the width of the scratch on day n and W0 is the width of the scratch on day one (i.e. immediately after scratching). […] Briefly, a scratch, typically about 2-3 mm in width, is created through a mass of plated cells, and the time needed for the cells to become confluent is observed. […] (GRN163 is a telomerase inhibitor oligonucleotide that targets the template region of the telomerase RNA component. Specifically, GRN163 is a 13-mer N3′→P5′ thiophosphoramidate oligonucleotide, described in detail in PCT Pubn. No. WO 01/18015. GRN137227 is a 13-mer N3′→P5′ thiophosphoramidate control oligonucleotide having a mismatched sequence.)

[5] = tested on: aging neonatal keratinocytes; assay: scratch assay (cell reconfluence), aging neonatal keratinocytes; type: cell-based, human; details: FIG. 7; compared with 50 ng/mL PDGF
Protocol: as §1

## CC(C)=CCC[C@](C)(O)[C@H]1CC[C@]2(C)[C@@H]1[C@H](O)C[C@@H]1[C@@]3(C)CC[C@H](O)C(C)(C)[C@@H]3[C@@H](O[C@@H]3O[C@H](CO)[C@@H](O)[C@H](O)[C@H]3O)C[C@]12C [Compound 8, ginsenoside RH1]
[1]
  MEC (minimum effective concentration producing telomerase activity twice that of DMSO control): 10 µM

## astragaloside IV 16-one [Compound 4]
[1]
  MEC (minimum effective concentration producing telomerase activity twice that of DMSO control): 0.03 µM

## CC(C)(O)[C@@H]1CC[C@](C)([C@H]2[C@@H](O)C[C@@]3(C)[C@@H]4CC=C5C(=CC[C@H](O)C5(C)C)[C@]4(C)CC[C@]23C)O1 [Compound 5, 20R,24S-epoxy-3β,16β,25-trihydroxy-9β-methyl-19-norlanost-1,5-diene]
[1]
  MEC (minimum effective concentration producing telomerase activity twice that of DMSO control): 0.10 µM

## CC(C)(O)[C@@H]1CC[C@](C)([C@H]2[C@@H](O)C[C@@]3(C)[C@@H]4C[C@H](O)[C@H]5C(C)(C)[C@@H](O)CC[C@]5(C)C4=CC[C@]23C)O1 [Compound 3, astragenol]
[1]
  MEC (minimum effective concentration producing telomerase activity twice that of DMSO control): 0.03 µM

## CC(C)(O)[C@@H]1CC[C@](C)([C@H]2[C@@H](O)C[C@@]3(C)[C@@H]4C[C@H](O)[C@H]5C(C)(C)[C@@H](OC6OC[C@@H](O)[C@H](O)[C@H]6O)CC[C@@]56C[C@@]46CC[C@]23C)O1 (stereo partly drawn) [Compound 7, cycloastragenol 3-β-D-xylopyranoside]
[1]
  MEC (minimum effective concentration producing telomerase activity twice that of DMSO control): 3.2 µM

## CC(C)(O)[C@@H]1CC[C@](C)([C@H]2[C@@H](O)C[C@@]3(C)[C@@H]4C[C@H](OC5O[C@H](CO)[C@@H](O)[C@H](O)[C@H]5O)[C@H]5C(C)(C)[C@@H](O)CC[C@@]56C[C@@]46CC[C@]23C)O1 (stereo partly drawn) [Compound 6, cycloastragenol 6-β-D-glucopyranoside]
[1]
  MEC (minimum effective concentration producing telomerase activity twice that of DMSO control): 3.2 µM

## EGF: EGF (epidermal growth factor), used at 10 nM as comparison in the TRAP assay [reference compound]
[1]; cells treated with 10 nM EGF
  telomerase activity: about 200%

## CC(C)(O)[C@@H]1CC[C@](C)([C@H]2[C@@H](O)C[C@@]3(C)[C@@H]4C[C@H](O)[C@H]5C(C)(C)[C@@H](O)CC[C@@]56C[C@@]46CC[C@]23C)O1 [Compound 2, cycloastragenol]
[1]
  MEC (minimum effective concentration producing telomerase activity twice that of DMSO control): 0.01 µM
  telomerase activity (result in words): increase of telomerase activity
[1]; at 0.1 μM, maximum of the concentration series
  telomerase activity: about 300 % of control
[2]
  SCtest (percentage of closure): 90.5%
[2]; first 'Day 1 test' column
  Approx. scratch width (arbitrary units) Day 1 test: 21 arbitrary units
[2]; second 'Day 1 test' column
  Approx. scratch width (arbitrary units) Day 1 test: 2 arbitrary units
[3]; 0.01 wt %
  total delivery over 48 hours: ~66 ng
[3]; 0.25 wt %
  total delivery over 48 hours: ~600 ng

## CC(C)(O)[C@@H]1CC[C@](C)([C@H]2[C@@H](O)C[C@@]3(C)[C@@H]4C[C@H](O[C@@H]5O[C@H](CO)[C@@H](O)[C@H](O)[C@H]5O)[C@H]5C(C)(C)[C@@H](O[C@@H]6OC[C@@H](O)[C@H](O)[C@H]6O)CC[C@@]56C[C@@]46CC[C@]23C)O1 [Compound 1, astragaloside IV]
[1]
  MEC (minimum effective concentration producing telomerase activity twice that of DMSO control): 0.01 µM
  telomerase activity (result in words): increase in telomerase activity
[1]; at 1.0 μM, maximum of the concentration series
  telomerase activity: about 360 % of control
[4]; FIG. 4, 0.1 μg/ml 1, SC=100-[100×Wn/W0]
  SCtest (percentage of closure): 100%
[4]; FIG. 4, first 'Day 1 test' column
  Approx. scratch width (arbitrary units) Day 1 test: 17 arbitrary units
[4]; FIG. 4, second 'Day 1 test' column
  Approx. scratch width (arbitrary units) Day 1 test: 0 arbitrary units
[4]; FIG. 4, 0.1 μg/ml (about 0.13 μM), versus control cells at day 4
  confluence of treated cells: confluent at day 4
[4]; FIG. 6, 1 alone
  cell proliferation: promotion of cell proliferation
[2]
  SCtest (percentage of closure): 100%
[2]; first 'Day 1 test' column
  Approx. scratch width (arbitrary units) Day 1 test: 18 arbitrary units
[2]; second 'Day 1 test' column
  Approx. scratch width (arbitrary units) Day 1 test: 0 arbitrary units
[5]
  promotion of cell reconfluence: comparable to that of PDGF
